Data reported in publication PMC6677754, “In silico design and optimization of selective membranolytic anticancer peptides” (Scientific Reports, 2019).
Peptide text beside a SMILES is read from it.

Key:
[1] = test system: A549 lung adenocarcinoma cell line; assay: Cell viability assay (MTT); format: cell-based, human; conditions: Table S2; MTT, 24 h; mean ± sd; N = 2 independent measurements with six technical replicates each (Figs S6-S8); read-out: A549 EC50 /µM
Method: (§1) 10% fetal bovine serum and 1% penicillin-streptomycin (Thermo Fisher Scientific, Waltham, MA, USA). The cultures were kept at 37°C in a 5% CO2 atmosphere incubator (Thermo Fisher Scientific, Waltham, MA, USA) and split every two to three days to new culture flasks. Cells no older than 20 passages were used for experiments.
(§2) For splitting, the cell culture media was aspirated, the cells were washed with 0.01 M phosphate buffered saline (PBS, Gibco, Thermo Fisher Scientific, Waltham, MA, USA) and trypsin-EDTA (trypsin - ethylene diamine tetraacetic acid, Fisher scientific, UK) was added to the cell layer to detach them from the flask surface. After incubation for 2 min at 37°C, cells were resuspended with an equal volume of DMEM media and centrifuged at 310 g for 5 min at 4°C. After removal of the supernatant the cells were resuspended in DMEM cell media and split into new cell culture flasks at a 1/3 to 1/5 ratio.
(§3) Determination of the anticancer peptides half effective concentration (EC50) was performed by a 3-(4,5-dimethylthiazol-2-yl)-2,5-diphenyltetrazolium bromide (MTT) assay, as described elsewhere21. Briefly, […] were seeded in each well of a 96-well plate and left to adhere and […]
(§4) sulfoxide (DMSO, Fisher Scientific, UK) at an intermediate concentration of 1 mM. The peptides were then diluted in a 2-fold dilution series starting at 100 μM with DMEM culture media. Cells were incubated with the peptide solutions for 24 h. After this time, the cell media was removed and the cells were incubated for 1 h with a 0.5 mg mL−1 MTT solution to allow enough time for formazan crystal formation (Sigma Aldrich, Steinheim, Germany). The supernatant was removed and 100 μL of DMSO were added into each well to resuspend the formazan crystals.
(§5) After manually shaking the plates to completely dissolve the crystals, the absorbance was measured at 540 nm in a Tecan Infinity M1000 spectrophotometer. The cell viability was determined based on the quantification of the color intensity in each culture well, considering the absorbance obtained by the control media without peptides as a 100% survival. The resultant sigmoidal curves were analyzed with the drc22 R package using a log-logistic model

[2] = test system: MCF7 breast adenocarcinoma cell line; assay: Cell viability assay (MTT); format: cell-based, human; conditions: Table S2, 24 h, mean ± sd, N = 2 independent measurements with six technical replicates each (Figs S6-S8)
Method: as §1, §2, §3, §4, §5

[3] = test system: noncancer HDMEC primary cells (human dermal microvascular endothelial cells); assay: Cell viability assay (MTT); format: cell-based; conditions: Table S2; noncancer primary cells; MTT, 24 h; mean ± sd; N = 2 independent measurements with six technical replicates each (Figs S6-S8)
Method: as §1, §2, §3, §4, §5

human erythrocytes = assay: Hemolysis assay; format: cell-based; conditions: 1 h
Method: Human erythrocytes were freshly ordered at the Blutspende Zürich. Erythrocytes were washed 3 times with a […] phosphate buffered saline (PBS, Gibco, Thermo Fisher Scientific, Waltham, MA, USA) solution centrifuging at 800 g for 10 min or until the supernatant appeared clear to remove the blood plasma. A 5% v/v erythrocytes : PBS solution was prepared for direct use. For HC50 determination, peptides were dissolved in PBS at an intermediate concentration of 1 mM. A dilution series of the peptide from 200 to 6.25 μM was plated in a round-bottomed 96-well plate in triplicates, with a volume of 50 μL per well. PBS buffer and a solution of 0.1% Triton-X-100 (Fisher Chemical, Loughborough, UK) in PBS were employed as negative and positive controls, respectively. 50 μL of the 5% erythrocyte solution were added in each well and the plates were incubated at 37°C for 1 h. After this time, 100 μL PBS were added to each well and plates were centrifuged at 800 g for 10 min. 100 μL of the supernatant were transferred to a flat-bottomed 96-well plate and the absorbance was measured at 540 nm in a Tecan Infinity M1000 spectrophotometer plate reader. The hemolysis percentage was calculated, considering the absorbance values of the Triton and PBS wells as 100% and 0% hemolysis, respectively.
The resultant sigmoidal curves were analyzed with the drc22 R package using a log-logistic model with 3 fixed parameters to obtain the HC50 values. […]
NCI-60 screening procedure […]
Each peptide was tested in a 5-concentration assay, starting at 10^-4 M and diluting 10-fold to the lowest 10^-8 M concentration. The peptides were incubated for 48 h and the cell concentration was assayed by using the sulforhodamine B assay25 and optical density measurements. The growth inhibition (GI50) value24, measures the growth inhibitory power of the drug agent. The GI50 value is the concentration of the test drug for which the condition in Eq. S1 is met, where T is the optical density of the test well after a 48-h exposure to the peptide, T0 the optical density before applying the peptide drug and C the control optical density of a well where no peptide was applied.

| SMILES | EC50 [1] [µM] | EC50 [2] [µM] | EC50 [3] [µM] | Eryhtr. HC50 /µM (human erythrocytes; red cells of human) [µM] | Eryhtr. HC50 /µM (human erythrocytes; Table S2, 5% v/v erythrocytes in PBS added 1:1, peptide 200 to 6.25 µM, 37°C, absorbance 540 nm, 0.1% Triton-X-100 = 100%, mean ± sd, N = 2 independent, three technical replicates) [µM] |
| --- | --- | --- | --- | --- | --- |
| CC[C@H](C)[C@H](NC(=O)[C@@H]1CCCN1C(=O)[C@H](Cc1c[nH]cn1)NC(=O)[C@H](Cc1ccccc1)NC(=O)[C@H](CCCCN)NC(=O)[C@H](CCCCN)NC(=O)[C@H](Cc1ccccc1)NC(=O)[C@@H](NC(=O)[C@@H](N)CCCNC(=N)N)C(C)C)C(=O)N[C@@H](Cc1ccc(O)cc1)C(=O)N[C@@H](Cc1c[nH]cn1)C(=O)N[C@@H](CCCNC(=N)N)C(=O)N[C@H](C(=O)N[C@@H](Cc1c[nH]c2ccccc12)C(=O)N[C@@H](CCCNC(=N)N)C(=O)N[C@@H](CC(C)C)C(=O)N[C@@H](Cc1c[nH]c2ccccc12)C(=O)NCC(=O)N[C@@H](Cc1c[nH]cn1)C(=O)N[C@@H](CC(C)C)C(N)=O)C(C)C [Off1] (H-RVFKKFHPIYHRVWRLWGHL-NH2) | 49 ± 2 | 27.4 ± 0.5 | 56 ± 7 | > 200 | – |
| CC[C@H](C)[C@H](NC(=O)[C@H](CCCCN)NC(=O)CNC(=O)[C@@H](NC(=O)[C@H](Cc1ccc(O)cc1)NC(=O)[C@H](Cc1c[nH]cn1)NC(=O)[C@H](Cc1c[nH]c2ccccc12)NC(=O)[C@@H](NC(=O)[C@H](CCCCN)NC(=O)[C@H](CCCCN)NC(=O)[C@H](CC(C)C)NC(=O)[C@@H](NC(=O)[C@H](Cc1c[nH]cn1)NC(=O)[C@H](CCCNC(=N)N)NC(=O)[C@H](Cc1ccccc1)NC(=O)[C@H](CCCCN)NC(=O)[C@H](CCCCN)NC(=O)[C@H](Cc1ccc(O)cc1)NC(=O)[C@H](CC(C)C)NC(=O)[C@@H](N)CCCCN)[C@@H](C)CC)C(C)C)C(C)C)C(N)=O [Off3] (H-KLYKKFRHILKKVWHYVGKI-NH2) | 14 ± 3 | 10 ± 1 | 10 ± 3 | 29 ± 3 | – |
| CC[C@H](C)[C@H](NC(=O)[C@H](CCCCN)NC(=O)[C@H](CCCCN)NC(=O)[C@@H](NC(=O)[C@@H](NC(=O)[C@@H](N)CCC(N)=O)[C@@H](C)CC)[C@@H](C)CC)C(=O)N[C@@H](CCCNC(=N)N)C(=O)N[C@H](C(=O)N[C@@H](Cc1c[nH]c2ccccc12)C(=O)N[C@@H](Cc1ccc(O)cc1)C(=O)N[C@@H](CCCNC(=N)N)C(=O)N[C@@H](CCCCN)C(=O)N[C@@H](C)C(=O)N[C@@H](Cc1c[nH]c2ccccc12)C(=O)N[C@@H](Cc1c[nH]cn1)C(=O)N[C@H](C(=O)N[C@@H](CC(C)C)C(=O)NCC(=O)N[C@@H](CCCCN)C(=O)N[C@H](C(N)=O)C(C)C)C(C)C)[C@@H](C)O [Off2.2] (H-QIIKKIRTWYRKAWHVLGKV-NH2) | 20 ± 1 | 11.6 ± 0.8 | 42 ± 7 | – | > 200 |
| CC(C)C[C@H](NC(=O)[C@H](CCCCN)NC(=O)CNC(=O)[C@H](Cc1ccccc1)NC(=O)[C@H](CC(C)C)NC(=O)[C@H](CCC(=O)O)NC(=O)[C@H](Cc1c[nH]c2ccccc12)NC(=O)[C@@H]1CCCN1C(=O)[C@H](CCCNC(=N)N)NC(=O)[C@H](CCCNC(=N)N)NC(=O)[C@H](Cc1ccc(O)cc1)NC(=O)[C@H](Cc1ccccc1)NC(=O)[C@@H]1CCCN1C(=O)[C@H](CCCNC(=N)N)NC(=O)[C@H](Cc1ccccc1)NC(=O)[C@H](CCCCN)NC(=O)[C@H](CCCCN)NC(=O)[C@H](Cc1ccccc1)NC(=O)[C@@H](NC(=O)[C@@H](N)CCC(N)=O)C(C)C)C(N)=O [Off2.1] (H-QVFKKFRPFYRRPWELFGKL-NH2) | > 100 | 91 ± 2 | 173 ± 1 | > 200 | – |
| CC[C@H](C)[C@H](NC(=O)[C@H](CC(C)C)NC(=O)[C@@H](N)CCC(N)=O)C(=O)N[C@@H](CCCCN)C(=O)N[C@@H](CCCCN)C(=O)N[C@@H](CC(C)C)C(=O)N[C@@H](CCCNC(=N)N)C(=O)N[C@H](C(=O)N[C@@H](Cc1c[nH]c2ccccc12)C(=O)N[C@@H](Cc1ccc(O)cc1)C(=O)N[C@@H](CCCNC(=N)N)C(=O)N[C@@H](CCCCN)C(=O)N[C@@H](C)C(=O)N[C@@H](Cc1c[nH]c2ccccc12)C(=O)N[C@@H](Cc1c[nH]cn1)C(=O)N[C@H](C(=O)N[C@@H](CC(C)C)C(=O)NCC(=O)N[C@@H](CCCCN)C(=O)N[C@@H](CC(C)C)C(N)=O)C(C)C)[C@@H](C)O [Off2.2.6] (H-QLIKKLRTWYRKAWHVLGKL-NH2) | 10.6 ± 0.8 | 6.5 ± 0.2 | 9 ± 1 | > 200 | – |
| CC(C)C[C@H](NC(=O)[C@H](CCCNC(=N)N)NC(=O)CNC(=O)[C@H](CC(C)C)NC(=O)[C@@H](NC(=O)[C@H](CCCCN)NC(=O)[C@H](Cc1c[nH]c2ccccc12)NC(=O)[C@H](Cc1ccc(O)cc1)NC(=O)[C@H](CCCNC(=N)N)NC(=O)[C@H](CCCCN)NC(=O)[C@H](Cc1ccc(O)cc1)NC(=O)[C@@H](NC(=O)[C@@H](NC(=O)[C@H](CCCCN)NC(=O)[C@H](Cc1ccccc1)NC(=O)[C@H](Cc1c[nH]cn1)NC(=O)[C@H](CCCCN)NC(=O)[C@H](CC(C)C)NC(=O)[C@H](Cc1ccccc1)NC(=O)[C@@H](N)CCCNC(=N)N)[C@@H](C)O)C(C)C)C(C)C)C(N)=O [Off8] (H-RFLKHFKTVYKRYWKVLGRL-NH2) | 17 ± 4 | 11.9 ± 0.1 | 14.3 ± 0.2 | 144 ± 4 | – |
| CC[C@H](C)[C@H](NC(=O)[C@H](CCCCN)NC(=O)[C@H](CCCCN)NC(=O)[C@H](CC(C)C)NC(=O)[C@H](CC(C)C)NC(=O)[C@@H](N)CCC(N)=O)C(=O)N[C@@H](CCCNC(=N)N)C(=O)N[C@H](C(=O)N[C@@H](Cc1c[nH]c2ccccc12)C(=O)N[C@@H](Cc1ccc(O)cc1)C(=O)N[C@@H](CCCNC(=N)N)C(=O)N[C@@H](CCCCN)C(=O)N[C@@H](C)C(=O)N[C@@H](Cc1c[nH]c2ccccc12)C(=O)N[C@@H](Cc1c[nH]cn1)C(=O)N[C@H](C(=O)N[C@@H](Cc1ccc(O)cc1)C(=O)NCC(=O)N[C@@H](CCCCN)C(=O)N[C@H](C(N)=O)C(C)C)C(C)C)[C@@H](C)O [Off2.2.9] (H-QLLKKIRTWYRKAWHVYGKV-NH2) | 28 ± 3 | 13 ± 1 | 21 ± 2 | > 200 | – |
| CC[C@H](C)[C@H](NC(=O)[C@H](CCCCN)NC(=O)[C@H](CCCCN)NC(=O)[C@H](CC(C)C)NC(=O)[C@H](Cc1ccccc1)NC(=O)[C@H](CC(=O)O)NC(=O)[C@H](CCCCN)NC(=O)[C@H](Cc1ccccc1)NC(=O)[C@H](CCCCN)NC(=O)[C@H](CCCCN)NC(=O)[C@H](Cc1ccccc1)NC(=O)[C@@H](NC(=O)[C@@H](N)CCCCN)[C@@H](C)CC)C(=O)N[C@@H](Cc1ccccc1)C(=O)N[C@@H](CCC(N)=O)C(=O)N[C@@H](Cc1ccc(O)cc1)C(=O)N[C@@H](CC(C)C)C(=O)NCC(=O)N[C@@H](CCCCN)C(=O)N[C@H](C(N)=O)C(C)C [Off5] (H-KIFKKFKDFLKKIFQYLGKV-NH2) | 17.4 ± 0.1 | 12.4 ± 0.4 | 10.1 ± 0.2 | 15 ± 2 | – |
